The subject of one series is frail elderly. Briefly: Example 2: double-blind, randomized, placebo-controlled trial in the frail elderly. Format: in vivo, human. From the text: The design is a parallel group, randomized, placebo-controlled, double-blind study with three different application groups. Each group has an appropriate number of participants (e.g., 20 participants). Eligibility is defined as being 65 years or older and being frail or pre-frail. Frailty is defined as having unintentional weight loss, weakness, self-reported exhaustion, slow walking speed, and/or low physical activity (see Fried L P, et al. Frailty in older adults: evidence for a phenotype. J Gerontol A Biol Sci Med Sci. […] A participant is classified as pre-frail when one or two of the aforementioned criteria are met, while frail is classified when three or more criteria are present. […] The duration of supplementation is 6 months (180 days). […] Double-blind randomization is carried out by means of a label code associated with a specific participant ID number, whose meaning is known only to the supplier. Participants are allocated randomly to these numbers. […] For baseline (Day 0) the following tests are performed: […] […] Executive functioning test batteries include the following standard tests of executive functioning: Trail Making Tests A and B (to determine the ratio of TMT-B/TMT-A), Stroop Colour-Word Test, including determining the Stroop ratio, calculated by Stroop card 3/((Stroop card 1+Stroop card 2)/2) and animal fluency test. […]

For the next series, the system named is healthy adults under 65. Also noted: species or system human. The conditions noted are these: in vivo. From the text: The design is a parallel group, randomized, placebo-controlled, double-blind study similar to that of Example 2, above, except that the participants are healthy adults under 65. The duration of supplementation is 6 months (180 days). Group size is chosen so that a statistically significant difference, if present, may be observed between placebo and test groups.
Participants are randomly allocated to either the 25-OH D3 group, Vitamin D3 group, (Vitamin D3+25-OH D3) group or placebo group. Double-blind randomization is carried out by means of a label code associated with a specific participant ID number, whose meaning is known only to the supplier. Participants are allocated randomly to these numbers.
For baseline (Day 0) the following tests are performed: Physical examination, vital signs (blood pressure, heart rate), demographics, clinical laboratory, FFQ, serum: 25-OH D3, 24,25(OH)2D, 1,25(OH)2D3, Vitamin D3, calcium, albumin, creatinine, fasting glucose, PTH; urine: calcium, creatinine; executive function tests (see below). […]
Executive functioning test batteries include the following standard tests of executive functioning: Trail Making Tests A and B (to determine the ratio of TMT-B/TMT-A), Stroop Colour-Word Test, including determining the Stroop ratio, calculated by Stroop card 3/((Stroop card 1+Stroop card 2)/2) and animal fluency test. […]

Molecules are shown by their SMILES.

For the compound `C=C1CC[C@H](O)C/C1=C/C=C1\CCC[C@]2(C)[C@@H]([C@H](C)CCCC(C)(C)O)CC[C@@H]12` [25(OH)D, 25-hydroxyvitamin D3], in the series with frail elderly (frail elderly, 6 months, in comparison to Vitamin D3 and placebo), the “improvement of executive functioning” value is “significantly higher effect”. Besides, the “25-OH D3 serum level” value in the series with frail elderly (in vivo) is given as “significantly increases”. Further, in the series on healthy adults under 65, the “25-OH D serum level” value was “significantly increases”.

Values taken from patent publication US9707242B2, “Use of 25-hydroxyvitamin D3 to enhance executive functions” (DSM IP ASSETS B.V., priority 2013, dated 2017).
